Each block holds one compound with its values, some of them ahead of it.
Experiments:
[1] = test system: epididymal fat, subcutaneous fat and brown fat; assay: Marker expression in adipose tissues of mice treated for 14 days, real-time PCR; format: in vivo; conditions: 5 mg/kg abdominal injection, FIGS. 6 to 8
Method: To examine activities of butein to increase the numbers of beige and brown adipocytes and inhibit white adipocytes in vivo, expression of markers in adipose tissues were measured after mice were treated with butein for 14 days. 6 mice were treated with 5 mg/kg of the butein through abdominal injection, and as a control, 6 mice were treated with only a solvent through abdominal injection. After 14 days, expression levels of markers for white fat and beige (brown) fat in epididymal fat, subcutaneous fat and brown fat were confirmed through real-time PCR.

[2] = test system: T37i cells (brown fat precursor cells); assay: Brown adipocyte marker expression in differentiated T37i cells, real-time PCR; format: cell-based; conditions: butein 5, 10 and 20 μM, 6 days, FIG. 2
Method: To confirm an increase in number of brown adipocytes by butein treatment, brown fat precursor cells, T37i cells, were used. The T37i cells were cultured in a medium containing 5 μg/ml insulin and 1 nM triiodothyronine (T3) for 2 days, and then the differentiation into adipocytes using a medium containing 5 μg/ml insulin was induced for 6 to 8 days. The differentiation-induced adipocytes were treated with butein for 6 days by concentrations (5, 10 and 20 μM) and stained with Oil Red O, and then mRNA expression levels of PPARγ and aP2 related to the adipocyte differentiation and brown adipocyte markers, that is, UCP-1, PRDM16 and Cidea genes, were confirmed through real-time PCR.

[3] = test system: UCP-1 expression in MEF cells; assay: UCP-1 expression in MEF cells; format: cell-based, mouse; conditions: DMSO-treated control, FIG. 4
From the text: An increase in expression level of UCP-1 by butein treatment in C3H10T1/2 cells was compared to those by treatment of sulfuretin, fisetin, resveratrol and genistein, which are known as materials having an influence on adipocytes, and the increase in expression level of UCP-1 by butein treatment in MEF cells was compared to a DMSO-treated group as a control.

[4] = test system: HFD obesity-induced C57BL6/J mice; assay: HFD obesity-induced mice, comparison with PBS-treated group; format: in vivo
Method: To confirm an anti-obesity effect of butein, obesity was induced in C57BL6/J mice by HFD, and the mice were treated with butein through abdominal injection. 7-week-old mice were adjusted for 1 week, fed with HFD (60% fat, purchased from Research Diet) for 8 weeks to induce obesity, and butein was treated daily at 5 mg/kg and 15 mg/kg into two groups of mice, each group having 7 mice. As controls, a normal diet food intake group (5 mice) and a group fed with HFD and treated with PBS (7 mice) were used. Increases in body weight during the treatment period and weights of various organs were compared, and after 8 weeks, a glucose tolerance test (GTT) and an insulin tolerance test (ITT) were performed in combination with histological and hematological analyses.

PRDM4 gene = assay: Microarray for gene inducing bioactivity of butein; format: cell-based
[5] = test system: HFD obesity-induced C57BL6/J mice; assay: HFD obesity-induced mice, comparison with resveratrol-treated group; format: in vivo; conditions: for body weight compared to the control: 28-week-old mice
Method: To confirm an anti-obesity effect of butein, obesity was induced to C57BL6/J mice by HFD, and changes in body weight according to butein treatment were confirmed. Specifically, 7-week-old mice were adjusted for 1 week, and fed with HFD (60% fat, purchased from Research Diet) for 12 weeks to induce obesity. Afterward, 30 mg/kg of butein was treated daily into 8 of the obesity-induced mice for 8 weeks. As controls, a PBS-treated group (7 mice) and a group (8 mice) treated with resveratrol, which is known to have an effect on preventing obesity, were used. After the 8-week treatment, increases in body weight were compared, and 8 weeks later, a GTT and a ITT were performed in combination with a hematological analysis.

[6] = test system: PRDM4 expression in C3H10T1/2 cells; assay: PRDM4 expression in differentiated C3H10T1/2 adipocytes, real-time PCR; format: cell-based, mouse; conditions: 24 hours, FIG. 25
Method: To confirm an anti-obesity effect of the butein derivative, changes in expression levels of UCP-1 and PRDM4 by treatment of the butein derivative (Formulas 1-1 to 1-8 and 1-10 to 1-14) were measured. Differentiated C3H10T1/2 adipocytes were treated with the butein and the derivatives for 24 hours, and the expression levels of UCP-1 and PRDM4 were investigated using real-time PCR.

[7] = test system: UCP-1 expression in C3H10T1/2 cells; assay: UCP-1 expression in differentiated C3H10T1/2 adipocytes, real-time PCR; format: cell-based, mouse
Method: Differentiated C3H10T1/2 adipocytes were treated with the butein and the derivatives for 24 hours, and the expression levels of UCP-1 and PRDM4 were investigated using real-time PCR.

[8] = HFD 8 weeks, butein 5 and 15 mg/kg daily, vs HFD control
[9] = differentiated C3H10T1/2 adipocytes, 24 hours, FIG. 25

food intake ([5]; between three groups, FIG. 20C): no differences
Structure (SMILES): O=C(/C=C/c1ccc(O)c(O)c1)c1ccc(O)cc1O [Compound 1-1, butein]
adipocyte markers PPARγ and aP2 [1]: decreases
brown adipocyte markers UCP-1, PRDM16 Cox8b and Cidea [1]: increases
white adipocyte markers resistin and Nnmt [1]: decreases
expression of Cidea [2]: increased
expression of PRDM16 [2]: increased
expression of UCP-1 [2]: increased
expression of UCP-1 compared to the control [3]: more than 10 times
UCP-1, PRDM16, Cox8b, PGC-1α, CIDEA, COX7a and Dio2 specifically expressed in beige adipocytes ([4]; 15 mg/kg of butein, 8 weeks): increased
glucose-insulin metabolism (GTT and ITT) ([4]; 15 mg/kg of butein, 8 weeks): significantly improved
body weight [4, 8]: tendency to concentration-dependent decreases
weights of adipose tissues of livers and internal organs [4, 8]: tendency to concentration-dependent decreases
hematological analysis: glucose, cholesterol, neutral fat, HDL, LDL and a fatty acid ([4]; high dosage of butein): significant differences
PRDM4 gene expression (PRDM4 gene): increased in expression by more than approximately twice
effect of decreasing body weight compared to the resveratrol-treated group ([5]; 30 mg/kg daily for 8 weeks after 12 weeks HFD): considerably excellent effect of decreasing a body weight
decrease in body weight compared to the PBS-treated group ([5]; 30 mg/kg daily for 8 weeks after 12 weeks HFD, FIG. 20): approximately 10%
body weight compared to the control [5]: considerable decrease
glucose-insulin metabolism (GTT and ITT) ([5]; HFD-But group, FIG. 21): considerably improved
rectal temperature ([5]; HFD-But group, FIG. 21): increased
expression level of PRDM4 [6]: significant increases
expression of UCP-1 compared to sulfuretin, fisetin, resveratrol and genistein ([7]; C3H10T1/2 cells, FIG. 3): increased more than three times
expression of UCP-1 ([7]; butein 5, 10 and 20 μM, 24 hours, FIG. 1): the expression of UCP-1 increased
expression level of UCP-1 [7, 9]: significant increases
expression level of UCP-1 ([7]; differentiated C3H10T1/2 cells, 24 hours, FIG. 5): specifically and considerably increased

food intake ([5]; mouse, in vivo): no differences
Structure (SMILES): Oc1ccc(C=Cc2cc(O)cc(O)c2)cc1 [resveratrol, reference compound]
body weight compared to the control [5]: no changes

Structure (SMILES): O=C(/C=C/c1ccc(O)c(O)c1)c1ccc(O)cc1 [Compound 1-12, (E)-3-(3,4-dihydroxyphenyl)-1-(4-hydroxyphenyl)prop-2-en-1-one]
expression level of PRDM4 compared to the butein-treated group (BFI) [6]: considerably increased
expression level of UCP-1 compared to the butein-treated group (BFI) [7, 9]: considerably increased

Structure (SMILES): COc1cc(C2CC(=O)c3ccc(O)cc3O2)ccc1F (stereo not drawn) [Compound 1-11, 2-(4-fluoro-3-methoxyphenyl)-7-hydroxychroman-4-one]
expression level of PRDM4 compared to the butein-treated group (BFI) [6]: considerably increased
expression level of UCP-1 compared to the butein-treated group (BFI) [7, 9]: considerably increased
